According to article PMC7377239, “Cardiovascular Effects of Polychlorinated Biphenyls and Their Major Metabolites” (Environmental Health Perspectives, 2020):
Like-named read-outs stand apart in the source and are kept apart here.

System: iCell cardiomyocytes (human iPSC-derived cardiomyocytes)
Assay: High-content imaging of cytotoxicity and mitochondrial integrity in iPSC-CMs
Type: cell-based
Method in brief: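 Cardiomyocytes grown on gelatinized 384-well plates received fresh medium on the experiment day and were then exposed to chemicals at 0.01–100μM. Nuclei and mitochondria were labeled with Hoechst 33342 and MitoTracker™ Orange, then fixed, and imaged on an ImageXpress® Micro Confocal system. Four-parameter logistic concentration–response fits in R, with a one-standard-deviation vehicle cutoff, gave point-of-departure values.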

[1] = 0.10 µM, 24hrs, 0.00 µM = 100.00
[2] = 10.00 µM, 24hrs, 0.00 µM = 100.00
[3] = 100.00 µM, 90min, 0.00 µM = 100.00
[4] = 100.00 µM, 24hrs, 0.00 µM = 100.00
[5] = 0.01 µM, 90min, 0.00 µM = 100.00
[6] = 0.01 µM, 24hrs, 0.00 µM = 100.00
[7] = 0.10 µM, 90min, 0.00 µM = 100.00
[8] = 1.00 µM, 90min, 0.00 µM = 100.00
[9] = 1.00 µM, 24hrs, 0.00 µM = 100.00
[10] = 10.00 µM, 90min, 0.00 µM = 100.00

Clc1ccc(Cl)c(-c2c(Cl)ccc(Cl)c2Cl)c1Cl [(+)-PCB 136, 2,2′,3,3′,6,6′-hexachlorobiphenyl]
cm.mii.24hrs [1]: 104.89
cm.mito.24hrs [2]: 66.95
cm.mii.90min [3]: 30.66
cm.mito.90min [3]: 0.83
cm.mii.24hrs [4]: 35.96
viability at 0.01 µM (Homo sapiens, Cardiomyocyte, 1.5 h, 0.01 µM, 90min, 0.00 µM = 100.00, read-out: cm.cam.90min): 94%
activity at 0.01 µM (Homo sapiens, Cardiomyocyte, 1.5 h, 0.01 µM, 90min, 0.00 µM = 100.00, read-out: cm.mii.90min): 115%
activity at 0.01 µM (Homo sapiens, Cardiomyocyte, 1.5 h, 0.01 µM, 90min, 0.00 µM = 100.00, read-out: cm.mito.90min): 94.1%
viability at 0.01 µM (Homo sapiens, Cardiomyocyte, 1.5 h, 0.01 µM, 90min, 0.00 µM = 100.00, read-out: cm.tc.90min): 94.5%
viability at 0.1 µM (Homo sapiens, Cardiomyocyte, 1.5 h, 0.10 µM, 90min, 0.00 µM = 100.00, read-out: cm.cam.90min): 100%
activity at 0.1 µM (Homo sapiens, Cardiomyocyte, 1.5 h, 0.10 µM, 90min, 0.00 µM = 100.00, read-out: cm.mii.90min): 108%
activity at 0.1 µM (Homo sapiens, Cardiomyocyte, 1.5 h, 0.10 µM, 90min, 0.00 µM = 100.00, read-out: cm.mito.90min): 100%
viability at 0.1 µM (Homo sapiens, Cardiomyocyte, 1.5 h, 0.10 µM, 90min, 0.00 µM = 100.00, read-out: cm.tc.90min): 100%
viability at 1 µM (Homo sapiens, Cardiomyocyte, 1.5 h, 1.00 µM, 90min, 0.00 µM = 100.00, read-out: cm.cam.90min): 97.7%
activity at 1 µM (Homo sapiens, Cardiomyocyte, 1.5 h, 1.00 µM, 90min, 0.00 µM = 100.00, read-out: cm.mii.90min): 103%
activity at 1 µM (Homo sapiens, Cardiomyocyte, 1.5 h, 1.00 µM, 90min, 0.00 µM = 100.00, read-out: cm.mito.90min): 97.5%
viability at 1 µM (Homo sapiens, Cardiomyocyte, 1.5 h, 1.00 µM, 90min, 0.00 µM = 100.00, read-out: cm.tc.90min): 97.8%
viability at 10 µM (Homo sapiens, Cardiomyocyte, 1.5 h, 10.00 µM, 90min, 0.00 µM = 100.00, read-out: cm.cam.90min): 101%
activity at 10 µM (Homo sapiens, Cardiomyocyte, 1.5 h, 10.00 µM, 90min, 0.00 µM = 100.00, read-out: cm.mii.90min): 101%
activity at 10 µM (Homo sapiens, Cardiomyocyte, 1.5 h, 10.00 µM, 90min, 0.00 µM = 100.00, read-out: cm.mito.90min): 102%
viability at 10 µM (Homo sapiens, Cardiomyocyte, 1.5 h, 10.00 µM, 90min, 0.00 µM = 100.00, read-out: cm.tc.90min): 102%
viability at 0.01 µM (Homo sapiens, Cardiomyocyte, 24 h, 0.01 µM, 24hrs, 0.00 µM = 100.00, read-out: cm.cam.24hrs): 92.8%
activity at 0.01 µM (Homo sapiens, Cardiomyocyte, 24 h, 0.01 µM, 24hrs, 0.00 µM = 100.00, read-out: cm.mii.24hrs): 90.7%
activity at 0.01 µM (Homo sapiens, Cardiomyocyte, 24 h, 0.01 µM, 24hrs, 0.00 µM = 100.00, read-out: cm.mito.24hrs): 95.4%
viability at 0.01 µM (Homo sapiens, Cardiomyocyte, 24 h, 0.01 µM, 24hrs, 0.00 µM = 100.00, read-out: cm.tc.24hrs): 95.4%
viability at 0.1 µM (Homo sapiens, Cardiomyocyte, 24 h, 0.10 µM, 24hrs, 0.00 µM = 100.00, read-out: cm.cam.24hrs): 96.6%
activity at 0.1 µM (Homo sapiens, Cardiomyocyte, 24 h, 0.10 µM, 24hrs, 0.00 µM = 100.00, read-out: cm.mito.24hrs): 98.1%
viability at 0.1 µM (Homo sapiens, Cardiomyocyte, 24 h, 0.10 µM, 24hrs, 0.00 µM = 100.00, read-out: cm.tc.24hrs): 96.6%
viability at 1 µM (Homo sapiens, Cardiomyocyte, 24 h, 1.00 µM, 24hrs, 0.00 µM = 100.00, read-out: cm.cam.24hrs): 95.6%
activity at 1 µM (Homo sapiens, Cardiomyocyte, 24 h, 1.00 µM, 24hrs, 0.00 µM = 100.00, read-out: cm.mii.24hrs): 86.4%
activity at 1 µM (Homo sapiens, Cardiomyocyte, 24 h, 1.00 µM, 24hrs, 0.00 µM = 100.00, read-out: cm.mito.24hrs): 97%
viability at 1 µM (Homo sapiens, Cardiomyocyte, 24 h, 1.00 µM, 24hrs, 0.00 µM = 100.00, read-out: cm.tc.24hrs): 96.3%
activity at 10 µM (Homo sapiens, Cardiomyocyte, 24 h, 10.00 µM, 24hrs, 0.00 µM = 100.00, read-out: cm.mii.24hrs): 99.9%
viability at 100 µM (Homo sapiens, Cardiomyocyte, 24 h, 100.00 µM, 24hrs, 0.00 µM = 100.00, read-out: cm.cam.24hrs): 1.96%
activity at 100 µM (Homo sapiens, Cardiomyocyte, 24 h, 100.00 µM, 24hrs, 0.00 µM = 100.00, read-out: cm.mito.24hrs): 1.15%
viability at 100 µM (Homo sapiens, Cardiomyocyte, 24 h, 100.00 µM, 24hrs, 0.00 µM = 100.00, read-out: cm.tc.24hrs): 2.72%
minimal effective concentration (Homo sapiens, Cardiomyocyte, 24 h, cardiomyocytes (cm), mii, 24 hrs, read-out: POD cm.mii.24hrs): 50.8 µM
minimal effective concentration (Homo sapiens, Cardiomyocyte, 24 h, read-out: cm.mii.24hrs POD): 50.8 µM

Clc1ccc(Cl)c(-c2c(Cl)ccc(Cl)c2Cl)c1Cl [(-)-PCB 136, 2,2′,3,3′,6,6′-hexachlorobiphenyl]
cm.mii.90min [5]: 112.68
cm.mito.90min [5]: 96.45
cm.mii.24hrs [6]: 102.85
cm.mito.24hrs [6]: 101.32
cm.mii.90min [7]: 114.32
cm.mito.90min [7]: 99.06
cm.mii.24hrs [1]: 75.71
cm.mito.24hrs [1]: 97.62
cm.mii.90min [8]: 108.72
cm.mito.90min [8]: 99.64
cm.mii.24hrs [9]: 98.56
cm.mito.24hrs [9]: 95.39
cm.mii.90min [10]: 109.00
cm.mito.90min [10]: 96.91
cm.mii.24hrs [2]: 82.93
cm.mito.24hrs [2]: 97.40
cm.mii.90min [3]: 5.98
cm.mito.90min [3]: 0.07
cm.mii.24hrs [4]: 87.76
cm.mito.24hrs [4]: 0.79
